In ChEMBL document CHEMBL5465560, “Selectivity Literature for EUbOPEN Chemogenomic Library” (2024):

Assays:
[1] = target: Serine/threonine-protein kinase PLK3 (Homo sapiens, UniProt Q9H4B4); test: Selectivity interaction (Kinase panel (Invitrogen)) EUB0000639a PLK3; conditions: at 200 nM
[2] = target: Casein kinase I isoform gamma-1 (Homo sapiens) (UniProt Q9HCP0); test: Selectivity interaction (Kinase panel (Z-LYTE Assay)) EUB0001632a CSNK1G1; conditions: at 10 µM
[3] = target: T1, Casein kinase II subunit alpha (Homo sapiens, UniProt P68400); test: Selectivity interaction (Kinase panel (Z-LYTE Assay)) EUB0001632a CSNK2A1; conditions: at 10 µM
[4] = target: T2, Myosin-IIIb (Homo sapiens) (UniProt Q8WXR4); test: Selectivity interaction (KinomeScan (DiscoverX)) EUB0000695a MYO3B; conditions: at 100 nM
T2 sequence (whole entry): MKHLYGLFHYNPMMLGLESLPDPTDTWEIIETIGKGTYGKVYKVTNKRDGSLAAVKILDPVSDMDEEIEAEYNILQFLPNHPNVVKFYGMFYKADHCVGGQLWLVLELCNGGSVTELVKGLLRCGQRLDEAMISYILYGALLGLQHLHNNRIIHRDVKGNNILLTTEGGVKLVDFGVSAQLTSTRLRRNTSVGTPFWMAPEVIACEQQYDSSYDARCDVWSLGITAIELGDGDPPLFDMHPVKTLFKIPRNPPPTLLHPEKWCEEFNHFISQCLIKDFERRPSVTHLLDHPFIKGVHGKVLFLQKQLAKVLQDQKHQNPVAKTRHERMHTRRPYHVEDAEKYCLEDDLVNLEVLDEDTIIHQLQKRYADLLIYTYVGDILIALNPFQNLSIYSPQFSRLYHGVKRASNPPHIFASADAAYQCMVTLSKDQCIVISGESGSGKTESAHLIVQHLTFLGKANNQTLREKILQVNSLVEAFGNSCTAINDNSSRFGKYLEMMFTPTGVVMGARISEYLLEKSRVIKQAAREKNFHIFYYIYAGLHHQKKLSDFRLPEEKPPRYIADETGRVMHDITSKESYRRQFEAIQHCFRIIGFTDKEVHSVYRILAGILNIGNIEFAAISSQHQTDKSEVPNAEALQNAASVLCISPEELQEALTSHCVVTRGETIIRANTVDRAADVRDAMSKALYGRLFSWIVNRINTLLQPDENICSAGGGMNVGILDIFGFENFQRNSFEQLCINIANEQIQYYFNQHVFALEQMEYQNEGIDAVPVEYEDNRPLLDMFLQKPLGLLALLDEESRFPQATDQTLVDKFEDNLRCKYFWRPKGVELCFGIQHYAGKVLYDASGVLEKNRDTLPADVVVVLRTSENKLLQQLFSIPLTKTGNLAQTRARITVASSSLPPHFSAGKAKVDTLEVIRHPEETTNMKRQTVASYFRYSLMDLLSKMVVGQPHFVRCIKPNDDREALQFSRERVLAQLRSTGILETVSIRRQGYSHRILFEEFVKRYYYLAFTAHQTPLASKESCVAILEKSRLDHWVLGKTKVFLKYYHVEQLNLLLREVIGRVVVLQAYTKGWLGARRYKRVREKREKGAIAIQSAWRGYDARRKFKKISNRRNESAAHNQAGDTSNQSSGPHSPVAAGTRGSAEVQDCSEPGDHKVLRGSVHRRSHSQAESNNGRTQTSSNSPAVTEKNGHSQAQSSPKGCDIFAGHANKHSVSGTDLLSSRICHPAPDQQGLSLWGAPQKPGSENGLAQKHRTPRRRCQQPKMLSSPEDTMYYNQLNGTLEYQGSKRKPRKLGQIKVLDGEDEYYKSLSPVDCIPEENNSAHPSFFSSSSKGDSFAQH

[5] = target: T3, Bone morphogenetic protein receptor type-2 (Homo sapiens) (UniProt Q13873); conditions: at 10 µM
T3 sequence (whole entry): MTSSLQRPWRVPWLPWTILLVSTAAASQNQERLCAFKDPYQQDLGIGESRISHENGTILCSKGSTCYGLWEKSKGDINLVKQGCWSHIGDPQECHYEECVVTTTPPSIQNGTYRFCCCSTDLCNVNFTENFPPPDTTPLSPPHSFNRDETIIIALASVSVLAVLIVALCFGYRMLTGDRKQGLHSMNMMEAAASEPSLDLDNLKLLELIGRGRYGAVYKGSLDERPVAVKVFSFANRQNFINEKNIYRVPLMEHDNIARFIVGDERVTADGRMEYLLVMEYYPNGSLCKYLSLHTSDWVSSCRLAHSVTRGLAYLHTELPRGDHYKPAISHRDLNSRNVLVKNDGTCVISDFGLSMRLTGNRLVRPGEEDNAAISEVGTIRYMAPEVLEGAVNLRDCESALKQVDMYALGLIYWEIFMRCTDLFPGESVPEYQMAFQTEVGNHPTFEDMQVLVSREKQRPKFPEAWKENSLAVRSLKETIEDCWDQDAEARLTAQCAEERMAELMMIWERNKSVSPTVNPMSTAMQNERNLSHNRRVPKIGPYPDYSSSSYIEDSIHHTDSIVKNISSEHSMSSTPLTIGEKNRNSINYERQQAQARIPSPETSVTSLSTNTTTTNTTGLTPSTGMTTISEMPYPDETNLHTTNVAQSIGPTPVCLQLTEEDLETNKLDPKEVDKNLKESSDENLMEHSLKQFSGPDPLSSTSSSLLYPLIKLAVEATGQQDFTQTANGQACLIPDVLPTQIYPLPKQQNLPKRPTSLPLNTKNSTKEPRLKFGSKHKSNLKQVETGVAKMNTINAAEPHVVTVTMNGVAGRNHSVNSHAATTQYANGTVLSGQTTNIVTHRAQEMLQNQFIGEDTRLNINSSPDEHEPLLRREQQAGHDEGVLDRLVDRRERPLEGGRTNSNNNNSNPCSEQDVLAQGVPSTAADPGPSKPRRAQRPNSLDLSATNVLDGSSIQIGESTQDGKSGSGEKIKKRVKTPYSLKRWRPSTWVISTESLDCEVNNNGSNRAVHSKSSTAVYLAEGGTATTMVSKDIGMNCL

Insulin receptor = Insulin receptor (Homo sapiens, UniProt P06213); test: Selectivity interaction (KinomeScan (DiscoverX)) EUB0000229b INSR; conditions: at 10 µM
[6] = target: T1, Casein kinase II subunit alpha; test: Selectivity interaction (KinomeScan (DiscoverX)) EUB0000618a CSNK2A1; conditions: at 10 µM
[7] = target: Protein kinase C eta type (Homo sapiens) (UniProt P24723); test: Selectivity interaction (KinomeScan (DiscoverX)) EUB0000666a PRKCH; conditions: at 10 µM
Protein kinase C eta type (Homo sapiens), sequence (P24723 whole entry): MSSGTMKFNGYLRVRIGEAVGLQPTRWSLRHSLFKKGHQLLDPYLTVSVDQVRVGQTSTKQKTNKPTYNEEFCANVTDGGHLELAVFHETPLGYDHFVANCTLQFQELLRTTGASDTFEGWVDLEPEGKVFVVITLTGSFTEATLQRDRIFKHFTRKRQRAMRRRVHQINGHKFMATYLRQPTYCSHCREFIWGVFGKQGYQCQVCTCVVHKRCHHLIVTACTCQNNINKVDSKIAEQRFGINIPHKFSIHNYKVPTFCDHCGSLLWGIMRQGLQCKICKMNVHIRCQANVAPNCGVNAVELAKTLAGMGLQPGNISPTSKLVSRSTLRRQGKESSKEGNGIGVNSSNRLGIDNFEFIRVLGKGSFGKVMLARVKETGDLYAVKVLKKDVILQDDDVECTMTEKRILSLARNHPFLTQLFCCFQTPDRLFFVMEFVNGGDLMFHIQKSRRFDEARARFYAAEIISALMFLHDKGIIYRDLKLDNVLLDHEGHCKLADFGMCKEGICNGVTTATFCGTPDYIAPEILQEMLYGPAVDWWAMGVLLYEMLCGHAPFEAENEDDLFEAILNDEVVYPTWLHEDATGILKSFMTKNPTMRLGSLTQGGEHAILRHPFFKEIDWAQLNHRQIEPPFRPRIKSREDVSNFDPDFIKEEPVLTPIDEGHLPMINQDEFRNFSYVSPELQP

T1 sequence (P68400 whole entry, looked up): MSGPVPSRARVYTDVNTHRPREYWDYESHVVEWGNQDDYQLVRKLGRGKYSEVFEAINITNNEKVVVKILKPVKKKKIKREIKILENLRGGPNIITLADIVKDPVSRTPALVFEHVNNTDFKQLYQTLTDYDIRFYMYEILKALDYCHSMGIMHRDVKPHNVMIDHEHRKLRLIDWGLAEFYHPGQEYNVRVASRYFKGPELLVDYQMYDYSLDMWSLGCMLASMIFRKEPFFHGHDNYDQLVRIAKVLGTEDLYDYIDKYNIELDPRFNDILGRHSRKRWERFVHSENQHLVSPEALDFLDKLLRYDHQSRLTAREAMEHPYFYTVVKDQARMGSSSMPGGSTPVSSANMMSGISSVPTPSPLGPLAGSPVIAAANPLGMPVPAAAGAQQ
Casein kinase I isoform gamma-1 (Homo sapiens), sequence (Q9HCP0 whole entry, looked up, canonical isoform): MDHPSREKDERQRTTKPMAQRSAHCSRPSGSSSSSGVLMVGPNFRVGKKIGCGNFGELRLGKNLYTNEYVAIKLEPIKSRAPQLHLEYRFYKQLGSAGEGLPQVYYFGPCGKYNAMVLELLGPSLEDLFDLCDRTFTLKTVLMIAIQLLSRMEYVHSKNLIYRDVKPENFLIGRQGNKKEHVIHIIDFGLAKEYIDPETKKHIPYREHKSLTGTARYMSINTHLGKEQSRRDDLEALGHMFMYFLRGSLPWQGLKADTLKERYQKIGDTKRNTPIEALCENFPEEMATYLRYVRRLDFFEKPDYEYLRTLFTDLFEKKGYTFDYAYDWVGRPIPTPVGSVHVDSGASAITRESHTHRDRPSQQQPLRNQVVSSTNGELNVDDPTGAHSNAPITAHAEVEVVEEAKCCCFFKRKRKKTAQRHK
Insulin receptor, sequence (P06213 28-758 limits assumed): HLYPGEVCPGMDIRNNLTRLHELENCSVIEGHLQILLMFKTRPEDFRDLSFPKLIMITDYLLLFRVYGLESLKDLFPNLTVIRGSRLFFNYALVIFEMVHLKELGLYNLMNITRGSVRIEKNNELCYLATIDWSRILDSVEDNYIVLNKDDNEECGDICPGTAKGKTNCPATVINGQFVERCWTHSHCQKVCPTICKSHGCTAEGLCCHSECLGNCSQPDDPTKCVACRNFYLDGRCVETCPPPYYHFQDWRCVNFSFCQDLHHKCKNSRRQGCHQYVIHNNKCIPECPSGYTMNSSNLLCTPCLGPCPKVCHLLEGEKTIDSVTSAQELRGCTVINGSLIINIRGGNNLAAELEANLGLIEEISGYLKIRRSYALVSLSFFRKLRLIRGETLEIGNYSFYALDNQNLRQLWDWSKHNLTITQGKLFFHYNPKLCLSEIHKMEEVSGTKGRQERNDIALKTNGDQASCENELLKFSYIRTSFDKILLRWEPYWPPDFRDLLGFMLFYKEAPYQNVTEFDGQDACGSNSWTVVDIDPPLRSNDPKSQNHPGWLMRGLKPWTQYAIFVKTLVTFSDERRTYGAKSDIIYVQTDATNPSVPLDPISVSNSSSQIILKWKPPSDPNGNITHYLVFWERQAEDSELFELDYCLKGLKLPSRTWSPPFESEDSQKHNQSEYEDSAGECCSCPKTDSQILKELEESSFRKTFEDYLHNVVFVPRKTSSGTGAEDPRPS
Insulin receptor, sequence (P06213 763-1382 limits assumed): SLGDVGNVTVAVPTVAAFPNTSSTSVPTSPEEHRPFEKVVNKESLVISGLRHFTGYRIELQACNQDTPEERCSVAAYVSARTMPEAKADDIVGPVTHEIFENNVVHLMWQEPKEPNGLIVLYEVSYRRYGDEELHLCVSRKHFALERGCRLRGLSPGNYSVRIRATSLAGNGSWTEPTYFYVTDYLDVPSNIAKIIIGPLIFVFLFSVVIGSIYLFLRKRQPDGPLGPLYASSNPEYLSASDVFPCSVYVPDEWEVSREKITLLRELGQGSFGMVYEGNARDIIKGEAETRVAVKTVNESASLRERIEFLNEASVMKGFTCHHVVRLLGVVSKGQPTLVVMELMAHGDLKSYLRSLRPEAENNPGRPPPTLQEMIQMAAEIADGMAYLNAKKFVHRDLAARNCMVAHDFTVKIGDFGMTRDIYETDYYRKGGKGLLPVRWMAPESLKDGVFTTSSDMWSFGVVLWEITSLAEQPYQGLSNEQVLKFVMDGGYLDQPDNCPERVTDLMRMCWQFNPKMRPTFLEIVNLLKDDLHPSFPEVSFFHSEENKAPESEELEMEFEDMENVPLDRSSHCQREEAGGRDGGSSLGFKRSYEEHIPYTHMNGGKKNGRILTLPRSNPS
Serine/threonine-protein kinase PLK3, sequence (Q9H4B4 whole entry, looked up, canonical isoform): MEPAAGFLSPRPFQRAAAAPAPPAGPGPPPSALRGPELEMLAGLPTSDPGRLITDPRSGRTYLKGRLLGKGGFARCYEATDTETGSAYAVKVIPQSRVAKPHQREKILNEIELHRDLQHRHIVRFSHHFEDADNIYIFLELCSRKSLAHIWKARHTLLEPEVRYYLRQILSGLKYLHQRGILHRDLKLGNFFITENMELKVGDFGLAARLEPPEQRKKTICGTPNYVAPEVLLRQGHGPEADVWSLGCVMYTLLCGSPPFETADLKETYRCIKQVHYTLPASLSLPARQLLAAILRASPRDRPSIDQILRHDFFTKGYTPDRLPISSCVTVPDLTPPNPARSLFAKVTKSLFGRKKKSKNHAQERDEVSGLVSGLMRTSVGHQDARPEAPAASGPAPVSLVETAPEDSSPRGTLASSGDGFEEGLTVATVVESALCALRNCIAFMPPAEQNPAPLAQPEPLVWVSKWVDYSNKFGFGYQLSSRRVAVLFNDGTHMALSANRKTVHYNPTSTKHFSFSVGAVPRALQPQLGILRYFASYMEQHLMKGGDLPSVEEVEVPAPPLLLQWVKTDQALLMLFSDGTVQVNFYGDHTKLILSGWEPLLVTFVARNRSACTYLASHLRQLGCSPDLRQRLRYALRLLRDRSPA

Compound `CC[C@@H]1[C@H](F)C(=O)N[C@@H]1COc1nccc2cc(C(N)=O)c(OC)cc12` [ZIMLOVISERTIB] has a % of inhibition [1] of 5.09%.

With `Cn1cc(-n2cnc3c(NCc4nc5cc(Cl)c(Cl)cc5[nH]4)nc(N4CCOCC4)nc32)cn1` the % of control [2] was 12.7% and the % of control [3] was -3.76%.

`Cc1cc(F)c(C(=O)Nc2cccc(-c3nncn3C(C)C)n2)cc1-n1cnc(C2CC2)c1` was tested, and the % of control [4] was 80%.

`CCN(CC)CCCCNc1ncc2cc(-c3cc(OC)cc(OC)c3)c(NC(=O)NC(C)(C)C)nc2n1` gave a % of control [5] of 100%.

Compound `COc1cc(N(C)c2ccnc3ccc(C(F)(F)F)cc23)cc(OC)c1OC` has a % binding (Insulin receptor) of 100%.

Work on `O[C@H]1CC[C@H](Nc2ncc3nc(Nc4c(F)cc(F)cc4F)n([C@H]4CCOC4)c3n2)CC1` yielded a % of control [6] of 100%.

With `O=C(NOC[C@H](O)CO)c1ccc(F)c(F)c1Nc1ccc(I)cc1F` the % of control [7] was 100%.
